The record followed here is patent US20220380371A1, “MLL1 INHIBITORS AND ANTI-CANCER AGENTS” (NOVARTIS AG, priority 2019, published 2022).

Molecules are shown by their SMILES. Read-outs that look alike come from different tables or passages of the source.

One test concerns H3K4me3 in MV4-11 cells. The test is described as follows: MV4-11 H3K4me3 Cellular ELISA Assay. The test is classed as cell-based. As to conditions: Homo sapiens, MV4-11, 48 h. As for the experimental part:
MV4-11 H3K4me3 Cellular ELISA Assay
MV4-11 (ATCC® CRL-9591™) was cultured with RPMI1640 medium (Thermo Fisher Scientific, cat #11875) supplemented with 10% FBS (Thermo Fisher Scientific, cat #10099141) and 50 U/ml Penicillin-Streptomycin (Thermo Fisher Scientific, cat #10378016) in humidified incubator at 37° C., 5% CO2.
200 nL compounds dissolved in DMSO were serially diluted at 1:3 ratio for 12 points starting from 10 mM and dispensed into each wells of cell culture plates (PDL-coated ViewPlate-384 Black, FTC, PerkinElmer, #6007710). 3,750 MV4-11 cells in 40 μL culture medium were seeded into each well and treated with desired concentration for 48 hours. After treatment, wash cells with cold phosphate based buffer (PBS, pH 7.4) and aspirate the remaining PBS buffer. Crude histone lysate was extracted by 40 μL 0.5M HCl for 1 hour in 4° C. following neutralization by adding 32 μL neutralization buffer (0.5M Sodium phosphate dibasic, pH ˜12.5, 1.25 mM Dithiothreitol, Promega #V3151, Protease Inhibitor Cocktail, Sigma #8340) for each well. 5 μL and 20 μL of histone lysate was loaded to ELISA plate (384 Well Plates, PE HB, White, 6005620) for detection of total H3 and H3K4me3, respectively. Shake the plates gently in 4° C. for overnight. After histone binding, plates were washed with 80 μL PBS/T (PBS with 0.05% Tween-20) and blocked with 50 μL 3% BSA diluted in PBS/T per well for 1 hour. Incubate wells with primary antibody for 1 hour at room temperature using anti-H3K4me3 (CST #9727) and anti-total H3 (CST #9715) diluted 1:2000 in 3% BSA. Plates were then washed with PBS/T for 3 times and incubated with horseradish peroxidase (HRP) conjugated secondary antibody (CST #7074, 1:5000) for 1 hour at room temperature. The abundance of H3K4me3 and total H3 were measured by ECL substrates chemiluminescence (Pierce, #34080) on a plate reader (PerkinElmer EnVison 2104 Mutilable Reader). Percentage inhibition was calculated against DMSO control after normalization of H3K4me3 signal to H3 signal for individual samples. The data were then fit to a dose response curve using GraphPad Prism for IC50 calculation.
For orientation: An ELISA detects its analyte on a solid surface through an enzyme-linked reagent.

For test [1], the target named is wild type MLL1 four-member complex (MLL1-4C) (Homo sapiens, UniProt Q03164). The test is described as follows: MLL1 LC-MS Assay. The test is classed as biochemical. As for the experimental part: The compounds of the present disclosure were serially and separately diluted 3-fold in DMSO to obtain a total of eight or twelve concentrations. Then the test compounds at each concentration (120 nL of each) were transferred by Mosquito into white Proxiplate plus 384-well microplate (PerkinElmer). Solutions (6 μL) of 60 nM wild type MLL1 four-member complex (MLL1-4C) and 5 μM SAM in the reaction buffer (20 mM Tris-HCl, pH 8.0, 0.01% Tween 20, 1 mM DTT, 10 mM MgCl2, 0.01% BSA) were added to the wells that were then incubated with the test compound for 20 min. A 6 μL solution of 20 μM of the peptide substrate H3K4me0 (histone H3[1-21]-Biotin) in the reaction buffer was added to initiate each reaction. The final components in the reaction solution include 30 nM MLL1-4C, 2.5 μM SAM, and 10 μM H3K4me0 with varying concentration of the compounds. A positive control consisted of 30 nM MLL1-4C, 2.5 μM SAM, and 10 μM substrate in the absence of the test compound, and a negative control consisted of 2.5 μM SAM, and 10 μM substrate only. Each reaction was incubated at rt for 120 min, then stopped by addition of 3 μL per of quench solution (2.5% TFA with 320 nM d4-SAH). The reaction mixture was centrifuged (Eppendorf centrifuge 5810, Rotor A-4-62) for 2 min at 2000 rpm. The SAH production from the enzymatic assays were monitored by LC-MS/MS on an API 4000 triple quadrupole mass spec with Turbolon Spray (Applied Biosystem) coupled with Prominenece UFLC (Shimazu). The level of SAH production were then normalized based on the values coming from the positive and negative controls to give percent enzyme activities. The data were then fit to a dose response equation using the program Helios (Novartis) to get the IC50 values of the test compounds.

The subject of another test is MV4-11 cells. Put plainly: MV4-11 6-Day Cell Growth CTG (CellTiter-Glo) Assay. The test is classed as cell-based. Particulars: Homo sapiens, MV4-11, 144 h, MV4-11 cell growth CellTiter-Glo, 6 days. The method, then: MV4-11 6-Day Cell Growth CTG (CellTiter-Glo) Assay
Acute myeloid leukemia cell MV4-11 (ATCC® CRL-9591™) was cultured with RPMI 1640 medium (Thermo Fisher Scientific, cat #11875) supplemented with 10% FBS (Thermo Fisher Scientific, cat #10099141) in humidified incubator at 37° C., 5% CO2. To assess the effect of MLL1 inhibition on cell growth, the compound of the present invention was dissolved in DMSO and serially diluted at 1:3 for 12 points starting from 10 mM then 200 nL for the replicate of each dose per well was dispensed to Viewplate-384 Black (Perkin Elmer). Exponentially growing MV4-11 cells were seeded at the density of 300 cells per well in 40 μL to the plate, so the final compound working concentration starts from 50 μM. After 6 days, 40 μL CellTiter-Glo (Promega, cat #G7573) was added into the cell culture well and luminescence was read with Envision (Perkin Elmer) to determine the viable cells. The percentage inhibition was calculated against the samples treated with DMSO only and the data were used for dose response curve fitting in GraphPad Prism to get the IC50 of representative compound of present invention, which reflects the inhibition of MLL1 activity.

For `CCNC(=O)CC[C@@]1(N)CCN(c2cc(Cl)cc(Br)c2Cn2cnc3c(N)ncnc32)C1` (single isomer, unassigned) [Example 36], the results for the IC50 (with H3K4me3 in MV4-11 cells; in test [1] (read-out: LCMS)) were above 3000 nM and 50 to 100 nM, respectively.
On the same counts, the results for `Nc1ncnc2c1ncn2Cc1c(Br)cc(Cl)cc1N1CC[C@](N)(CCc2nn[nH]n2)C1` (single isomer, unassigned) [Example 39] are above 3000 nM and below 50 nM.
With `Nc1ncnc2c1ncn2Cc1c(N2CC[C@](N)(C(=O)NC3CC3)C2)ccc(F)c1C(O)C(F)(F)F` (single isomer, unassigned) [Example 82], the figures for the IC50 (in the test with H3K4me3 in MV4-11 cells; in the test with MV4-11 cells; in test [1] (read-out: LCMS)) were below 1900 nM, 2000 to 3000 nM and above 100 nM, respectively.
Take `Nc1ncnc2c1ncn2Cc1c(Br)c(Cl)c2c(c1N1CC[C@](N)(C(=O)NC3CC3)C1)CCC2` (stereo in doubt) [Example 42]: the IC50 in the test with H3K4me3 in MV4-11 cells was below 1900 nM; in the test on MV4-11 cells, 2000 to 3000 nM; in test [1] (read-out: LCMS) it was 50 to 100 nM.
On to `Nc1ncnc2c1ncn2Cc1c(N2CC[C@](N)(C(=O)NC3CC3)C2)ccc(Cl)c1C1CC1` (stereo in doubt) [Example 97], for which the results for the IC50 (in the test on H3K4me3 in MV4-11 cells; in the test on MV4-11 cells; in test [1] (read-out: LCMS)) were above 3000 nM, below 2000 nM and below 50 nM, respectively.
Taken in the same sequence, the figures for `C#Cc1c(F)ccc(N2CC[C@](N)(C(=O)NC3CC3)C2)c1Cn1cnc2c(N)ncnc21` [Example 5] were below 1900 nM, below 2000 nM and 50 to 100 nM.
Take `Nc1ncnc2c1ncn2Cc1c(N2CC[C@](N)(C(=O)NC3CC3)C2)ccc(F)c1CC(F)(F)F` [Example 6]: the results for the IC50 (in the test with H3K4me3 in MV4-11 cells; in the test on MV4-11 cells; in test [1] (read-out: LCMS)) were below 1900 nM, below 2000 nM and below 50 nM, respectively.
For the molecule `Nc1ncnc2c1ncn2Cc1c(CC(F)(F)F)cc(Cl)cc1N1CC[C@](N)(C(=O)NC2CC2)C1` [Example 7], the IC50 in the test with H3K4me3 in MV4-11 cells was below 1900 nM; in the test with MV4-11 cells, above 3000 nM; in test [1] (read-out: LCMS), 50 to 100 nM.
As to `Nc1ncnc2c1ncn2Cc1c(N2CC[C@](N)(C(=O)NC3CC3)C2)ccc(F)c1C1CC1` [Example 8], the IC50 with H3K4me3 in MV4-11 cells is below 1900 nM; with MV4-11 cells it was below 2000 nM; in test [1] (read-out: LCMS), 50 to 100 nM.
Taken in the same sequence, the figures for `C=Cc1c(F)ccc(N2CCC(N)(C(=O)NC3CC3)C2)c1Cn1cnc2c(N)ncnc21` (stereo not shown) [Example 9] were below 1900 nM, below 2000 nM and above 100 nM.
Taken in the same sequence, the figures for `CCc1c(F)ccc(N2CC[C@](N)(C(=O)NC3CC3)C2)c1Cn1cnc2c(N)ncnc21` [Example 10] were below 1900 nM, below 2000 nM and below 50 nM.
As to `Cc1c(C(F)(F)F)ccc(N2CC[C@](N)(C(=O)NC3CC3)C2)c1Cn1cnc2c(N)ncnc21` [Example 11], the IC50 is below 1900 nM with H3K4me3 in MV4-11 cells, below 2000 nM in the test on MV4-11 cells and below 50 nM in test [1] (read-out: LCMS).
Taken in the same sequence, the figures for `CCc1c(C(F)(F)F)ccc(N2CC[C@](N)(C(=O)NC3CC3)C2)c1Cn1cnc2c(N)ncnc21` [Example 12] were below 1900 nM, below 2000 nM and 50 to 100 nM.
As to `Nc1ncnc2c1ncn2Cc1c(N2CC[C@](N)(C(=O)NC3CC3)C2)ccc(F)c1Br` [Example 13], the IC50 in the test with H3K4me3 in MV4-11 cells is below 1900 nM; in the test with MV4-11 cells it was below 2000 nM; in test [1] (read-out: LCMS), below 50 nM.
Consider `COc1ccc(Br)c(Cn2cnc3c(N)ncnc32)c1N1CC[C@](N)(C(=O)NC2CC2)C1` [Example 21], for which the IC50 was above 3000 nM in the test on H3K4me3 in MV4-11 cells and 50 to 100 nM in test [1] (read-out: LCMS).
Taken in the same sequence, the figures for `Nc1ncnc2c1ncn2Cc1c(Br)cc(Cl)cc1N1CC[C@](N)(c2cc(C(F)(F)F)ccn2)C1` [Example 27] were above 3000 nM and below 50 nM.
For `Nc1ncnc2c1ncn2Cc1c(Br)cc(Cl)cc1N1CC[C@](N)(COCC(=O)NC2CC2)C1` [Example 30], the results for the IC50 (in the test with H3K4me3 in MV4-11 cells; in test [1] (read-out: LCMS)) were above 3000 nM and above 100 nM, respectively.
With `CCOC(=O)CC[C@@]1(N)CCN(c2cc(Cl)cc(Br)c2Cn2cnc3c(N)ncnc32)C1` [Example 34], the values for the IC50 (in the test on H3K4me3 in MV4-11 cells; in test [1] (read-out: LCMS)) were below 1900 nM and above 100 nM, respectively.
On the same counts, the results for `CCc1cc(Cl)cc(N2CC[C@](N)(CCc3nnc(NC)s3)C2)c1Cn1cnc2c(N)ncnc21` [Example 35] are above 3000 nM and 50 to 100 nM.
On the same counts, the results for `NC(=O)CCC1(N)CCN(c2cc(Cl)cc(Br)c2Cn2cnc3c(N)ncnc32)C1` (stereo not shown) [Example 37] are above 3000 nM and above 100 nM.
On the same counts, the results for `CCNC(=O)CC[C@@]1(N)CCN(c2cc(Cl)cc(CC)c2Cn2cnc3c(N)ncnc32)C1` [Example 38] are above 3000 nM and below 50 nM.
As for `CCc1cc(Cl)cc(N2CC[C@](N)(CCc3nn[nH]n3)C2)c1Cn1cnc2c(N)ncnc21` [Example 40], the IC50 is above 3000 nM in the test with H3K4me3 in MV4-11 cells and above 100 nM in test [1] (read-out: LCMS).
In the case of `COC(=O)NCc1c(F)ccc(N2CC[C@](N)(C(=O)NC3CC3)C2)c1Cn1cnc2c(N)ncnc21` [Example 71], the IC50 is above 3000 nM with H3K4me3 in MV4-11 cells and below 50 nM in test [1] (read-out: LCMS).
Taken in the same sequence, the figures for `CN(C)Cc1c(Cl)cc(Cl)c(N2CC[C@](N)(C(=O)NC3CC3)C2)c1Cn1cnc2c(N)ncnc21` [Example 74] were above 3000 nM and above 100 nM.
For the molecule `CN(C)Cc1cc(Cl)c(Cl)c(N2CC[C@](N)(C(=O)NC3CC3)C2)c1Cn1cnc2c(N)ncnc21` [Example 89, (R)-3-amino-1-(2-((6-amino-9H-purin-9-yl)methyl)-5,6-dichloro-3-((dimethylamino)methyl)phenyl)-N-cyclopropylpyrrolidine-3-carboxamide], the IC50 in the test on H3K4me3 in MV4-11 cells is above 3000 nM; in test [1] (read-out: LCMS), above 100 nM.
Taken in the same sequence, the figures for `Cn1nnc([C@@]2(N)CCN(c3cc(Cl)cc(Br)c3Cn3cnc4c(N)ncnc43)C2)n1` [Example 91, (R)-9-(2-(3-amino-3-(2-methyl-2H-tetrazol-5-yl)pyrrolidin-1-yl)-6-bromo-4-chlorobenzyl)-9H-purin-6-amine] were above 3000 nM and 50 to 100 nM.
Regarding `Cc1ccc(Cl)c(Cn2cnc3c(N)ncnc32)c1N1CCC(N)(C(=O)NC2CC2)C1` (stereo not shown) [Example 157], the figures for the IC50 (with H3K4me3 in MV4-11 cells; in test [1] (read-out: MLL1 LCMS)) were above 3000 nM and above 100 nM, respectively.
On the same counts, the results for `Nc1ncnc2c1ncn2Cc1c(N2CC[C@@](N)(C(=O)NC3CC3)C2)ccc2ccccc12` [Example 166] are below 1900 nM and 50 to 100 nM.
On the same counts, the results for `Nc1ncnc2c1ncn2Cc1c(N2CC[C@](N)(C(=O)NC3CC3)C2)ccc2cc(Br)ccc12` [Example 167] are below 1900 nM and below 50 nM.
